Read-outs that look alike come from different tables or passages of the source.
Tested on: HIV-1 Ba-L or HIV-1 IIIB infection of the HOS cell line (expressing hCXCR4/hCCR5/hCD4/pHIV-LTR-luciferase)
Assay: HOS HIV-1 Infectivity Assay
Type: cell-based
Conditions: luciferase readout, strain not given, read-out: Activity Level
Procedure: Compounds were profiled against two HIV-1 viruses, the M-tropic (CCR5 utilizing) Ba-L strain and the T-tropic (CXCR4 utilizing) IIIB strain. Ba-L was propagated in either peripheral blood lymphocytes or SupT1/CCR5+/CXCR4+ cells. IIIB was propagated in peripheral blood lymphocytes. Compounds were tested for their ability to block infection of the HOS cell line (expressing hCXCR4/hCCR5/hCD4/pHIV-LTR-luciferase) by either HIV-1 Ba-L or HIV-1 IIIB. Compound cytotoxicity was also examined in the absence of virus addition.
HOS cells (expressing hCXCR4/hCCR5/hCD4/pHIV-LTR-luciferase) were harvested and diluted in Dulbeccos modified Eagles media supplemented with 2% FCS to a concentration of 120,000 cells/ml. The cells were plated into 96-well plates (50 μl per well) and the plates were placed in a tissue culture incubator (370° C.; 5% CO2/95% air) for a period of 24 h.
Subsequently, 50 μl of the desired drug solution (2 times the final concentration) was added to each well and the plates were returned to the tissue culture incubator ([…]; 5% CO2/95% air) for 1 h. Following this incubation, 60 μl of diluted virus (4 times the final concentration) was added to 60 μl of 2× the final desired concentration of the compound and 100 μl this compound/virus mix was added to each well (approximately 2 million RLU per well of virus). The plates were returned to the tissue culture incubator ([…]; 5% CO2/95% air) and were incubated for a further 96 h.
Following this incubation the endpoint for the virally infected cultures was quantified following addition of Steady-Glo Luciferase assay system reagent (Promega, Madison, Wis.). Cell viability or non-infected cultures was measured using a CellTiter-Glo luminescent cell viability assay system (Promega, Madison, Wis.). All luminescent readouts are performed on a Topcount luminescence detector (Packard, Meridien, Conn.).

[1] = Human immunodeficiency virus 1, HOS cells

Question: How did the IC50 [1] turn out when `CC(C)CNCCCc1c(CN(C)[C@H]2CCCc3cccnc32)nc2ccccn12` [Example 4, (8S)-N-Methyl-N-[(3-{3-[(2-methylpropyl)amino]propyl}imidazo[1,2-a]pyridin-2-yl)methyl]-5,6,7,8-tetrahydro-8-quinolinamine] was run?
Answer: Its IC50 is < 100 nM.

Question: For `CN1CCC(N(C)Cc2c(CN(C)[C@H]3CCCc4cccnc43)nc3ccccn23)C1` (stereo partly drawn) [Example 23, (8S)-N-Methyl-N-[(3-{[methyl(1-methyl-3-pyrrolidinyl)amino]methyl}imidazo[1,2-a]pyridin-2-yl)methyl]-5,6,7,8-tetrahydro-8-quinolinamine], which IC50 [1] is on record?
Answer: The IC50 was < 100 nM.

Question: How did the IC50 [1] turn out when `CN(C)CCCc1c(CN(C)[C@H]2CCCc3cccnc32)nc2ccccn12` [Example 3, (8S)-N-({3-[3-(Dimethylamino)propyl]imidazo[1,2-a]pyridin-2-yl}methyl)-N-methyl-5,6,7,8-tetrahydro-8-quinolinamine] was run?
Answer: The IC50 was < 100 nM.

Question: How did the IC50 [1] turn out when `CN(C)C1CCN(C(=O)c2c(CN(C)C3CCCc4cccnc43)nc3ccccn23)C1` (centres unmarked) [Example 36, N-[(3-{[3-(dimethylamino)-1-pyrrolidinyl]carbonyl}imidazo[1,2-a]pyridin-2-yl)methyl]-N-methyl-5,6,7,8-tetrahydro-8-quinolinamine] was run?
Answer: Its IC50 is 100 to 500 nM.

Question: Which IC50 [1] does the source give for `CN(C)c1cc(-c2c(CN(C)[C@H]3CCCc4cccnc43)nc3ccccn23)ccn1` [Example 28, (8S)-N-({3-[2-(Dimethylamino)-4-pyridinyl]imidazo[1,2-a]pyridin-2-yl}methyl)-N-methyl-5,6,7,8-tetrahydro-8-quinolinamine] here?
Answer: The IC50 was 100 to 500 nM.

Question: With `CC(C)CN(C)Cc1c(CN(C)[C@H]2CCCc3cccnc32)nc2ccccn12` [Example 26, (8S)-N-Methyl-N-[(3-{[methyl(2-methylpropyl)amino]methyl}imidazo[1,2-a]pyridin-2-yl)methyl]-5,6,7,8-tetrahydro-8-quinolinamine] as the compound, how does the IC50 [1] read?
Answer: The IC50 was 100 to 500 nM.

Question: How did the IC50 [1] turn out when `CN(Cc1nc2ccccn2c1C(=O)N1CC(N)C1)C1CCCc2cccnc21` (centres unmarked) [Example 34, N-({3-[(3-amino-1-azetidinyl)carbonyl]imidazo[1,2-a]pyridin-2-yl}methyl)-N-methyl-5,6,7,8-tetrahydro-8-quinolinamine] was run?
Answer: The IC50 was 500 to 10000 nM.

Question: `CN(C)Cc1c(CN(C)[C@H]2CCCc3cccnc32)nc2ccccn12` [Example 6, (8S)-N-({3-[(Dimethylamino)methyl]imidazo[1,2-a]pyridin-2-yl}methyl)-N-methyl-5,6,7,8-tetrahydro-8-quinolinamine] was tested. Which IC50 [1] did it give?
Answer: The IC50 was < 100 nM.

Question: With `CN1CCC(N(C)Cc2c(CN(C)[C@H]3CCCc4cccnc43)nc3ccccn23)CC1` [Example 24, (8S)-N-Methyl-N-[(3-{[methyl(1-methyl-4-piperidinyl)amino]methyl}imidazo[1,2-a]pyridin-2-yl)methyl]-5,6,7,8-tetrahydro-8-quinolinamine] as the compound, how does the IC50 [1] read?
Answer: Its IC50 is < 100 nM.

Question: For “N,N,N′-Trimethyl-N′-{[2-({methyl[(8S)-5,6,7,8-tetrahydro-8-quinolinyl]amino}methyl)imidazo[1,2-a]pyridin-3-yl]methyl}-1,2-ethanediamine [Example 17]”, which IC50 (HOS cells) is on record?
Answer: Its IC50 is < 100 nM.

Question: How did the IC50 [1] turn out when `CN(Cc1nc2ccccn2c1CN1CCOCC1)[C@H]1CCCc2cccnc21` [Example 10, (8S)-N-Methyl-N-{[3-(4-morpholinylmethyl)imidazo[1,2-a]pyridin-2-yl]methyl}-5,6,7,8-tetrahydro-8-quinolinamine] was run?
Answer: The IC50 was 100 to 500 nM.

Question: For `CN(Cc1nc2ccccn2c1C(=O)NCCN1CCCC1)C1CCCc2cccnc21` (centres unmarked) [Example 35, 2-{[methyl(5,6,7,8-tetrahydro-8-quinolinyl)amino]methyl}-N-[2-(1-pyrrolidinyl)ethyl]imidazo[1,2-a]pyridine-3-carboxamide], which IC50 [1] is on record?
Answer: The IC50 was 500 to 10000 nM.

Question: With `COCCN(CCOC)Cc1c(CN(C)[C@H]2CCCc3cccnc32)nc2ccccn12` [Example 19, (8S)-N-{[3-({Bis[2-(methyloxy)ethyl]amino}methyl)imidazo[1,2-a]pyridin-2-yl]methyl}-N-methyl-5,6,7,8-tetrahydro-8-quinolinamine] as the compound, how does the IC50 [1] read?
Answer: The IC50 was 100 to 500 nM.

Question: Which IC50 [1] does the source give for `CN(CCC#N)Cc1c(CN(C)[C@H]2CCCc3cccnc32)nc2ccccn12` [Example 27, 3-(Methyl{[2-({methyl[(8S)-5,6,7,8-tetrahydro-8-quinolinyl]amino}methyl)imidazo[1,2-a]pyridin-3-yl]methyl}amino)propanenitrile] here?
Answer: The IC50 was < 100 nM.

Question: With `CN(C)C1CCN(c2ccc(-c3c(CN(C)[C@H]4CCCc5cccnc54)nc4ccccn34)cn2)C1` (stereo partly drawn) [Example 18, (8S)-N-[(3-{6-[3-(Dimethylamino)-1-pyrrolidinyl]-3-pyridinyl}imidazo[1,2-a]pyridin-2-yl)methyl]-N-methyl-5,6,7,8-tetrahydro-8-quinolinamine] as the compound, how does the IC50 [1] read?
Answer: Its IC50 is 500 to 10000 nM.

Question: How did the IC50 [1] turn out when `CN(C)CC(=O)NCc1c(CN(C)[C@H]2CCCc3cccnc32)nc2ccccn12` [Example 7, N^2,N^2-Dimethyl-N^1-{[2-({methyl[(8S)-5,6,7,8-tetrahydro-8-quinolinyl]amino}methyl)imidazo[1,2-a]pyridin-3-yl]methyl}glycinamide] was run?
Answer: Its IC50 is < 100 nM.

Question: How did the IC50 [1] turn out when `CN(Cc1nc2ccccn2c1-c1ccc(N2CCCC2)nc1)[C@H]1CCCc2cccnc21` [Example 15, (8S)-N-Methyl-N-({3-[6-(1-pyrrolidinyl)-3-pyridinyl]imidazo[1,2-a]pyridin-2-yl}methyl)-5,6,7,8-tetrahydro-8-quinolinamine] was run?
Answer: Its IC50 is 100 to 500 nM.

Question: `CN(Cc1nc2ccccn2c1-c1cccnc1)[C@H]1CCCc2cccnc21` [Example 5, (8S)-N-Methyl-N-{[3-(3-pyridinyl)imidazo[1,2-a]pyridin-2-yl]methyl}-5,6,7,8-tetrahydro-8-quinolinamine] was tested. Which IC50 [1] did it give?
Answer: The IC50 was 100 to 500 nM.

Question: With `CC(C)N1CCN(C(=O)c2c(CN(C)C3CCCc4cccnc43)nc3ccccn23)CC1` (centres unmarked) [Example 38, N-methyl-N-[(3-{[4-(1-methylethyl)-1-piperazinyl]carbonyl}imidazo[1,2-a]pyridin-2-yl)methyl]-5,6,7,8-tetrahydro-8-quinolinamine] as the compound, how does the IC50 [1] read?
Answer: Its IC50 is 500 to 10000 nM.

Question: `CN(C)c1ccc(-c2c(CN(C)[C@H]3CCCc4cccnc43)nc3ccccn23)cn1` [Example 11, (8S)-N-({3-[6-(Dimethylamino)-3-pyridinyl]imidazo[1,2-a]pyridin-2-yl}methyl)-N-methyl-5,6,7,8-tetrahydro-8-quinolinamine] was tested. Which IC50 [1] did it give?
Answer: Its IC50 is < 100 nM.

Question: Which IC50 [1] does the source give for `CN(Cc1nc2ccccn2c1-c1ccnc(N2CCOCC2)c1)[C@H]1CCCc2cccnc21` [Example 29, (8S)-N-Methyl-N-({3-[2-(4-morpholinyl)-4-pyridinyl]imidazo[1,2-a]pyridin-2-yl}methyl)-5,6,7,8-tetrahydro-8-quinolinamine] here?
Answer: Its IC50 is 100 to 500 nM.

Question: How did the IC50 [1] turn out when `COCCN(C)Cc1c(CN(C)[C@H]2CCCc3cccnc32)nc2ccccn12` [Example 21, (8S)-N-Methyl-N-{[3-({methyl[2-(methyloxy)ethyl]amino}methyl)imidazo[1,2-a]pyridin-2-yl]methyl}-5,6,7,8-tetrahydro-8-quinolinamine] was run?
Answer: Its IC50 is 100 to 500 nM.

Question: How did the IC50 [1] turn out when `CN(C)CCN(C)c1ccc(-c2c(CN(C)[C@H]3CCCc4cccnc43)nc3ccccn23)cn1` [Example 16, N,N,N′-trimethyl-N′-trimethyl-N′-{5-[2-({methyl[(8S)-5,6,7,8-tetrahydro-8-quinolinyl]amino}methyl)imidazo[1,2-a]pyridin-3-yl]-2-pyridinyl}-1,2-ethanediamine] was run?
Answer: Its IC50 is 500 to 10000 nM.

Question: How did the IC50 [1] turn out when `CN(Cc1nc2ccccn2c1CNCCCN)C1CCCc2cccnc21` (centres unmarked) [Example 32, N-[(2-{-[methyl(5,6,7,8-tetrahydro-8-quinolinyl)amino]methyl}imidazo[1,2-a]pyridin-3-yl)methyl]-1,3-propanediamine] was run?
Answer: Its IC50 is 100 to 500 nM.

Question: How did the IC50 [1] turn out when `CN(Cc1nc2ccccn2c1-c1ccc(N2CCOCC2)nc1)[C@H]1CCCc2cccnc21` [Example 8, (8S)-N-Methyl-N-({3-[6-(4-morpholinyl)-3-pyridinyl]imidazo[1,2-a]pyridin-2-yl}methyl)-5,6,7,8-tetrahydro-8-quinolinamine] was run?
Answer: Its IC50 is 100 to 500 nM.

Question: For `CN(Cc1nc2ccccn2c1-c1ccncc1)[C@H]1CCCc2cccnc21` [Example 1, (8S)-N-Methyl-N-{[3-(4-pyridinyl)imidazo[1,2-a]pyridin-2-yl]methyl}-5,6,7,8-tetrahydro-8-quinolinamine], which IC50 [1] is on record?
Answer: The IC50 was < 100 nM.

Question: With `CN1CCN(Cc2c(CN(C)C3CCCc4cccnc43)nc3ccccn23)CC1` (centres unmarked) [Example 31, N-methyl-N-({3-[(4-methyl-1-piperazinyl)methyl]imidazo[1,2-d]pyridin-2-yl}methyl)-5,6,7,8-tetrahydro-8-quinolinamine] as the compound, how does the IC50 [1] read?
Answer: The IC50 was 100 to 500 nM.

Question: With `CN(C)CCNC(=O)c1c(CN(C)C2CCCc3cccnc32)nc2ccccn12` (centres unmarked) [Example 33, N-[2-(dimethylamino)ethyl]-2-{[methyl(5,6,7,8-tetrahydro-8-quinolinyl)amino]methyl}imidazo[1,2-a]pyridine-3-carboxamide] as the compound, how does the IC50 [1] read?
Answer: Its IC50 is 500 to 10000 nM.

Question: How did the IC50 [1] turn out when `CC(C)N(C)Cc1c(CN(C)[C@H]2CCCc3cccnc32)nc2ccccn12` [Example 22, (8S)-N-Methyl-N-[(3-{[methyl(1-methylethyl)amino]methyl}imidazo[1,2-a]pyridin-2-yl)methyl]-5,6,7,8-tetrahydro-8-quinolinamine] was run?
Answer: The IC50 was < 100 nM.
